What follows are compounds tested against cAMP-dependent protein kinase (PKA) (Homo sapiens) (UniProt P22694+P17612+P22612) (assay: In vitro inhibitory activity against Protein Kinase A at a concentration of 10 uM).
Type: protein assay

| Structure (SMILES) | inhibition |
| --- | --- |
| O=C(CCn1c2ccccc2c2c3c(c4c5ccccc5[nH]c4c21)C(=O)NC3)NCC1CCOC1 (stereo not drawn) | 41% |
| COC(=O)c1cc(C(=O)c2cc(C(=O)c3cc(NC(=O)CCn4c5ccccc5c5c6c(c7c8ccccc8[nH]c7c54)C(=O)NC6)cn3C)cn2C)cn1C | 40% |
| COC(=O)c1cc(C(=O)c2cc(NC(=O)CCn3c4ccccc4c4c5c(c6c7ccccc7[nH]c6c43)C(=O)NC5)cn2C)cn1C | 43% |
| COC(=O)c1cc(NC(=O)CCn2c3ccccc3c3c4c(c5c6ccccc6[nH]c5c32)C(=O)NC4)cn1C | 40% |
| CN(C)CCCNC(=O)CCn1c2ccccc2c2c3c(c4c5ccccc5[nH]c4c21)C(=O)NC3 | 41% |

More lines, now with the values ahead:

| inhibition | Structure (SMILES) |
| --- | --- |
| 49% | O=C(CCn1c2ccccc2c2c3c(c4c5ccccc5[nH]c4c21)C(=O)NC3)NCCN1CCOCC1 |
| 25% | CN1CCCC1CCNC(=O)CCn1c2ccccc2c2c3c(c4c5ccccc5[nH]c4c21)C(=O)NC3 (stereo not drawn) |
| 42% | O=C(CCn1c2ccccc2c2c3c(c4c5ccccc5[nH]c4c21)C(=O)NC3)NCCN1CCCCC1 |

Source: ChEMBL document CHEMBL1128087, “Novel substituted indolocarbazoles as potent and selective inhibitors of protein kinase C” (Bioorg Med Chem Lett, 1995)
